SMILES strings stand for the structures. Some results are limits rather than exact numbers.

The test system of assay [1] is Calpain activity in SH-SY5Y cells. In words: SH-SY5Y + AMC fluorescence assay (Suc-LLVY-AMC substrate). Particulars: read-out: SH-SY5Y + AMC IC50. In kind it is cell-based.
Assay [2] concerns Calpain activity in SH-SY5Y cells (SBDP-150). Description: SH-SY5Y Spectrin western blot assay (SBDP-150 breakdown product, A23187-induced). In kind it is cell-based. As to conditions: Homo sapiens; SH-SY5Y cells, A23187-induced SBDP-150, western blot; read-out: SH-SY5Y Spectrin IC50.
A further assay has as its target T1, Human Calpain 1/NS1 (Homo sapiens, UniProt P07384).
T1 sequence (P07384 1-714): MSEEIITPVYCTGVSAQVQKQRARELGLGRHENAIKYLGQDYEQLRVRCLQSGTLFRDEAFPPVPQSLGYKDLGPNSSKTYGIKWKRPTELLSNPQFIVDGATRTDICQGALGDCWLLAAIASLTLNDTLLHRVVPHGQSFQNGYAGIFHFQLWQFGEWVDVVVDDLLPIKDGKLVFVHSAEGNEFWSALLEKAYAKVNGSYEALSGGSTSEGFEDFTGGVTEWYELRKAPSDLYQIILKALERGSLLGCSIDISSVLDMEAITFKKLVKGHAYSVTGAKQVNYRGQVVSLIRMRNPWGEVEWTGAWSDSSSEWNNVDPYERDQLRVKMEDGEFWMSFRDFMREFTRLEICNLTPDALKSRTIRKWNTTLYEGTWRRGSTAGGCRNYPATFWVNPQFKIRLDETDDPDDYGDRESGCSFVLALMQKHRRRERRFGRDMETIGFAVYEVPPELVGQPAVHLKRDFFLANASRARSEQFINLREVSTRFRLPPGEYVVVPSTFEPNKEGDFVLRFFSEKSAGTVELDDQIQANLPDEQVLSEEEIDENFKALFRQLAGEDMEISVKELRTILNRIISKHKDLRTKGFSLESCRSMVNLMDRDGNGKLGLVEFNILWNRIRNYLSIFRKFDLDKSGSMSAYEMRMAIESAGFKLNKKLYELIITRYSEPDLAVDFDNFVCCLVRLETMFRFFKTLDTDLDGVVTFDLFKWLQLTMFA
T1 sequence (P04632 1-268 partner): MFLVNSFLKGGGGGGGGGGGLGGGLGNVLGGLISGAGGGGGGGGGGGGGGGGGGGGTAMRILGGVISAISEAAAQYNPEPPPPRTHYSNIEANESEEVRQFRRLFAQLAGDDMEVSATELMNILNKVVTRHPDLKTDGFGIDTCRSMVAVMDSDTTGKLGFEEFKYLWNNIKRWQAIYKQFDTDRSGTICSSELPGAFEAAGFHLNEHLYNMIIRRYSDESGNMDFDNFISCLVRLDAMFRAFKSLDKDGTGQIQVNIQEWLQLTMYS
Description: Calpain inhibition continuous fluorescence (FRET) assay, Human Calpain 1/NS1. In kind it is biochemical. As to conditions: read-out: Human Calpain 1/NS1 IC50. In outline:
(§1)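 Inhibitors were preincubated with calpain in 50 mM Tris pH 7.5, 100 mM NaCl, 1 mM DTT at 25C. Reactions were started with 5-FAM/QXL 520 FRET peptide substrate plus CaCl2 and read at 490/520 nm for 10 min. IC50s came from 4-parameter fits of slope rates (1-5 min).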

The next assay has as its target T2, Human Calpain 9/NS1 (Homo sapiens, UniProt O14815).
T2 sequence (O14815 1-690): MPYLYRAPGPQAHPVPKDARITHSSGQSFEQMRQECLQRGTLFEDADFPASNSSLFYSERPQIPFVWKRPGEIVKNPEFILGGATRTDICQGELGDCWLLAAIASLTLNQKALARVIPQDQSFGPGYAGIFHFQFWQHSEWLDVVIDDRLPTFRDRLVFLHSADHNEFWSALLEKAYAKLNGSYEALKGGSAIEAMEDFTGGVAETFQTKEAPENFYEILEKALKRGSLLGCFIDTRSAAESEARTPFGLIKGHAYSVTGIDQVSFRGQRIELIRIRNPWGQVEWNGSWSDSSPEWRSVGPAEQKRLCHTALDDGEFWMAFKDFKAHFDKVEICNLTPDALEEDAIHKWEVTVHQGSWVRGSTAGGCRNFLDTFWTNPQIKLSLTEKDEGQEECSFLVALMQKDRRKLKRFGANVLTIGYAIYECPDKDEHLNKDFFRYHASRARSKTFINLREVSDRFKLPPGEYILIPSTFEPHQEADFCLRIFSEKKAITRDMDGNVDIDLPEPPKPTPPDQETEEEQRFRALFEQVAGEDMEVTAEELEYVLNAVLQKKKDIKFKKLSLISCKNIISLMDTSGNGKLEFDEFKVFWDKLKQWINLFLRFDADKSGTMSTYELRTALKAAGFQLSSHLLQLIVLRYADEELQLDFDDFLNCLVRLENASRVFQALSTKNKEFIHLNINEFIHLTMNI
T2 sequence (P04632 1-268 partner): T1 sequence (P04632 1-268 partner)
Description: Calpain inhibition continuous fluorescence (FRET) assay, Human Calpain 9/NS1. The class given is biochemical. Particulars: read-out: Human Calpain 9/NS1 IC50. In outline: as §1

The target of the next assay is T3, Human Calpain 2/NS1 (Homo sapiens, UniProt P17655).
T3 sequence (P17655 1-700): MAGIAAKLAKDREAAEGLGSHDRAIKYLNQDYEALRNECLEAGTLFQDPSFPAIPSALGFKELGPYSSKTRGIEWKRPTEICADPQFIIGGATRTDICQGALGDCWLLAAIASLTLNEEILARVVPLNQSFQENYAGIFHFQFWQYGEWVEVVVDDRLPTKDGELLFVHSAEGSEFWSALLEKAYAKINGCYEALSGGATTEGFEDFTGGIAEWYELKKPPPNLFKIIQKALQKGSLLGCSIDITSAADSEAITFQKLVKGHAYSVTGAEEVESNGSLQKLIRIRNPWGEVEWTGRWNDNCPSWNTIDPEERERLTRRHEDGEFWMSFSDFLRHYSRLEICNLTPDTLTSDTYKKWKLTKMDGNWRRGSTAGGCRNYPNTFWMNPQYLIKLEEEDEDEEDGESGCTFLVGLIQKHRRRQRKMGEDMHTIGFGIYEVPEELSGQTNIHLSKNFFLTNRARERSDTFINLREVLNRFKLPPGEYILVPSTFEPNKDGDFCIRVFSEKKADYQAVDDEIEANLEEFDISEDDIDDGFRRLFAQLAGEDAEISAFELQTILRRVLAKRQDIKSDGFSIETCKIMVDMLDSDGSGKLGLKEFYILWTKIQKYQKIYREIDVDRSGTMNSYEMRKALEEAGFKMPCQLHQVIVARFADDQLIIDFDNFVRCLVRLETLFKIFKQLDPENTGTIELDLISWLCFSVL
T3 sequence (P04632 1-268 partner): T1 sequence (P04632 1-268 partner)
Description: Calpain inhibition continuous fluorescence (FRET) assay, Human Calpain 2/NS1. As to conditions: read-out: Human Calpain 2/NS1 IC50. The class given is biochemical. In short, it runs like this: as §1

With `Cn1cc(C(=O)NC(Cc2ccccc2)C(=O)C(N)=O)c(-c2ccc3ccccc3n2)n1` (centres unmarked) [Compound 587, N-(4-amino-3,4-dioxo-1-phenylbutan-2-yl)-1-methyl-3-(quinolin-2-yl)-1H-pyrazole-4-carboxamide], the IC50 in assay [1] was > 25 µM; in assay [2], > 25 µM; at Human Calpain 1/NS1 it was < 3 µM; at Human Calpain 9/NS1 it was 3 to 10 µM; on Human Calpain 2/NS1, < 3 µM.

As for `NC(=O)C(=O)C(Cc1ccccc1)NC(=O)c1cn(C(F)F)nc1-c1ccc2ccccc2n1` (centres unmarked) [Compound 588, N-(4-amino-3,4-dioxo-1-phenylbutan-2-yl)-1-(difluoromethyl)-3-(quinolin-2-yl)-1H-pyrazole-4-carboxamide], the IC50 was > 25 µM in assay [1]; 10 to 25 µM in assay [2]; < 3 µM at Human Calpain 1/NS1; < 3 µM at Human Calpain 9/NS1; < 3 µM at Human Calpain 2/NS1.

Consider `Cn1cc(C(=O)NC(Cc2ccccc2)C(=O)C(N)=O)c(-c2cncc3ccccc23)n1` (centres unmarked) [Compound 591, N-(4-amino-3,4-dioxo-1-phenylbutan-2-yl)-3-(isoquinolin-4-yl)-1-methyl-1 h-pyrazole-4-carboxamide], for which the IC50 in assay [1] was > 25 µM; in assay [2] it was > 25 µM; at Human Calpain 1/NS1, < 3 µM; on Human Calpain 9/NS1, < 3 µM; on Human Calpain 2/NS1, < 3 µM.

With `Cc1nc(-c2ccccc2F)c(C(=O)N[C@H](Cc2ccccc2)C(=O)C(N)=O)o1` [Compound 592, (R)—N-(4-amino-3,4-dioxo-1-phenylbutan-2-yl)-4-(2-fluorophenyl)-2-methyloxazole-5-carboxamide], the IC50 in assay [1] is < 10 µM; in assay [2], 10 to 25 µM; on Human Calpain 1/NS1 it was < 3 µM; on Human Calpain 9/NS1 it was < 3 µM; on Human Calpain 2/NS1, < 3 µM.

For the compound `Cn1cc(C(=O)NC(Cc2ccccc2)C(=O)C(N)=O)c(-c2ccc3ncccc3c2)n1` (centres unmarked) [Compound 593, N-(4-amino-3,4-dioxo-1-phenylbutan-2-yl)-1-methyl-3-(quinolin-6-yl)-1H-pyrazole-4-carboxamide], the IC50 is > 25 µM in assay [1]; > 25 µM in assay [2]; < 3 µM on Human Calpain 1/NS1; < 3 µM at Human Calpain 9/NS1; < 3 µM at Human Calpain 2/NS1.

Turning to `Cc1c(F)cccc1-c1oncc1C(=O)NC(Cc1ccccc1)C(=O)C(N)=O` (centres unmarked) [Compound 594, N-(4-amino-3,4-dioxo-1-phenylbutan-2-yl)-5-(3-fluoro-2-methylphenyl)isoxazole-4-carboxamide], the IC50 is < 10 µM in assay [1]; 10 to 25 µM in assay [2]; < 3 µM at Human Calpain 1/NS1; < 3 µM at Human Calpain 9/NS1; < 3 µM on Human Calpain 2/NS1.

`COc1cccc(-c2oncc2C(=O)NC(Cc2ccccc2)C(=O)C(N)=O)c1F` (centres unmarked) [Compound 595, N-(4-amino-3,4-dioxo-1-phenylbutan-2-yl)-5-(2-fluoro-3-methoxyphenyl)isoxazole-4-carboxamide]: the IC50 in assay [1] was > 25 µM; in assay [2], 10 to 25 µM; on Human Calpain 1/NS1 it was < 3 µM; at Human Calpain 9/NS1, < 3 µM; at Human Calpain 2/NS1 it was < 3 µM.

For the compound `NC(=O)C(=O)C(Cc1ccccc1)NC(=O)c1cn(C(F)F)nc1-c1ccnc2ccccc12` (centres unmarked) [Compound 596, N-(4-amino-3,4-dioxo-1-phenylbutan-2-yl)-1-(difluoromethyl)-3-(quinolin-4-yl)-1H-pyrazole-4-carboxamide], the IC50 is < 10 µM in assay [1]; 10 to 25 µM in assay [2]; < 3 µM at Human Calpain 1/NS1; < 3 µM at Human Calpain 9/NS1; < 3 µM on Human Calpain 2/NS1.

With `Cn1cc(C(=O)NC(Cc2ccccc2)C(=O)C(N)=O)c(-c2cccc3ncccc23)n1` (centres unmarked) [Compound 597, N-(4-amino-3,4-dioxo-1-phenylbutan-2-yl)-1-methyl-3-(quinolin-5-yl)-1H-pyrazole-4-carboxamide], the IC50 is 10 to 25 µM in assay [1]; 10 to 25 µM in assay [2]; < 3 µM at Human Calpain 1/NS1; < 3 µM on Human Calpain 9/NS1; < 3 µM at Human Calpain 2/NS1.

For `NC(=O)C(=O)C(Cc1ccccc1)NC(=O)c1cn(C(F)F)nc1-c1cccc2cnccc12` (centres unmarked) [Compound 598, N-(4-amino-3,4-dioxo-1-phenylbutan-2-yl)-1-(difluoromethyl)-3-(isoquinolin-5-yl)-1H-pyrazole-4-carboxamide], the IC50 is < 10 µM in assay [1]; < 10 µM in assay [2]; < 3 µM on Human Calpain 1/NS1; < 3 µM on Human Calpain 9/NS1; < 3 µM on Human Calpain 2/NS1.

With `Cc1cncc(-c2oncc2C(=O)NC(Cc2ccccc2)C(=O)C(N)=O)c1` (centres unmarked) [Compound 600, N-(4-amino-3,4-dioxo-1-phenylbutan-2-yl)-5-(5-methylpyridin-3-yl)isoxazole-4-carboxamide], the IC50 was > 25 µM in assay [1]; 10 to 25 µM in assay [2]; < 3 µM at Human Calpain 1/NS1; < 3 µM at Human Calpain 9/NS1; < 3 µM at Human Calpain 2/NS1.

As to `Cn1cc(C(=O)NC(Cc2ccccc2)C(=O)C(N)=O)c(N2CCN(C(=O)OCc3ccccc3)CC2)n1` (centres unmarked) [Compound 601, Benzyl 4-(4-((4-amino-3,4-dioxo-1-phenylbutan-2-yl)carbamoyl)-1-methyl-1H-pyrazol-3-yl)piperazine-1-carboxylate], the IC50 in assay [1] was > 25 µM; in assay [2], > 25 µM; at Human Calpain 1/NS1, 3 to 10 µM; on Human Calpain 9/NS1 it was 3 to 10 µM; on Human Calpain 2/NS1, < 3 µM.

With `Cn1cc(C(=O)NC(Cc2ccccc2)C(=O)C(N)=O)c(-c2cc3ccccc3cn2)n1` (centres unmarked) [Compound 602, N-(4-amino-3,4-dioxo-1-phenylbutan-2-yl)-3-(isoquinolin-3-yl)-1-methyl-1H-pyrazole-4-carboxamide], the IC50 in assay [1] is > 25 µM; in assay [2], 10 to 25 µM; on Human Calpain 1/NS1, < 3 µM; at Human Calpain 9/NS1, < 3 µM; on Human Calpain 2/NS1 it was < 3 µM.

Source of the values: patent US11339130B1 (Blade Therapeutics, Inc., priority 2016, dated 2022).
